The Kinase Knowledgebase extract (Sharma et al. 2016)

Biological target: PIK3CA (human) (UniProt P42336)
Experiment: Assessment of PIK3CA Kinase Activity

Chain of PIK3CA (human) (P42336 whole entry, looked up): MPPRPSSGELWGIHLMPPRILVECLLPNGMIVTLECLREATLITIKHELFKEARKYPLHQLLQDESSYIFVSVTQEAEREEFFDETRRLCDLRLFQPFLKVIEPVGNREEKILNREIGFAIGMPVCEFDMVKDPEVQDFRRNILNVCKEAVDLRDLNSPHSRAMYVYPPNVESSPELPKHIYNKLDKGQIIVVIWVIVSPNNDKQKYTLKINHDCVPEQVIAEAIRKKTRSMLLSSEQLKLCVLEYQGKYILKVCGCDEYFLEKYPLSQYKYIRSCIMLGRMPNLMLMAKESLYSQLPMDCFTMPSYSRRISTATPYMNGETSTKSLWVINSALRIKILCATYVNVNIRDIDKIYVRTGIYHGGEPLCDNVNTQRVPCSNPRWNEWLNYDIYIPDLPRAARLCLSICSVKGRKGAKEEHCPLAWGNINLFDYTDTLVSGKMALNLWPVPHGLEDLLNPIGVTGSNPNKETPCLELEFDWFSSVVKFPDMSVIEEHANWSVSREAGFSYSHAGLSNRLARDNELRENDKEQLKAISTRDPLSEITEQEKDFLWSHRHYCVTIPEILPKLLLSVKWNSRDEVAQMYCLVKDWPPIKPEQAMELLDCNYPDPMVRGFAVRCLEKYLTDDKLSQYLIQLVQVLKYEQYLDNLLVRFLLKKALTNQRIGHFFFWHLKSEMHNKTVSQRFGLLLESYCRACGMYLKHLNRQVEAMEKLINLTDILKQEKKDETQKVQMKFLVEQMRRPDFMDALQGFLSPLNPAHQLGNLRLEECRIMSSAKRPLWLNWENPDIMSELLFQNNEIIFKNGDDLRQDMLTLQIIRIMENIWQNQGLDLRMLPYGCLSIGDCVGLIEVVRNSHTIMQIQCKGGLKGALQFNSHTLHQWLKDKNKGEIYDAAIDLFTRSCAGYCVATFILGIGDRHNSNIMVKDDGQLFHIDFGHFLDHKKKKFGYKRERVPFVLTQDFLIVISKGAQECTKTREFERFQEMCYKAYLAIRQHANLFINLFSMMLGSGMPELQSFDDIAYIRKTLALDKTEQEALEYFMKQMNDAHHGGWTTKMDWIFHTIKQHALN

SMILES | IC50
Cc1ccc2c(c1)OCCn1cc(-c3nc(C)nn3C(C)C)nc1-2 | < 1 µM
NC(=O)[C@@H]1CCCN1c1cc2c(cn1)-c1nc(-c3ncnn3-c3ccccc3Cl)cn1CCO2 | < 1 µM
CC(C)n1ncnc1-c1cn2c(n1)-c1ccc(N)cc1OCC2 | < 1 µM
CC(C)n1ncnc1-c1cn2c(n1)-c1cnc(N3CCN(CC(N)=O)CC3)cc1OCC2 | < 1 µM
NC(=O)C1(Oc2ccc3c(c2)OCCn2cc(-c4ncnn4CC(F)(F)F)nc2-3)CC1 | < 1 µM
OCc1nc(-c2cn3c(n2)-c2cnc(Cl)cc2OCC3)n(CC(F)(F)F)n1 | < 1 µM
CC(C)n1ncnc1-c1cn2c(n1)-c1ccc(C3CCN(CC(=O)N(C)C)CC3O)cc1OCC2 (centres undefined) | < 1 µM
CC(=O)N1CC(c2ccc3c(c2)-n2nc(-c4ncnn4C(C)C)cc2CCO3)C1 | < 1 µM
Cc1ccc2c(c1)-c1nc(-c3nc(C)nn3C(C)C)cn1CCO2 | < 1 µM
Clc1ccccc1-n1ncnc1-c1cn2c(n1)-c1cc(-c3cncnc3)ccc1OCC2 | < 1 µM
C[C@H](Oc1ccc2c(c1)OCCn1cc(-c3ncnn3CC(F)(F)F)nc1-2)C(N)=O | < 1 µM
CC(C)n1ncnc1-c1cn2c(n1)-c1ccc(NCC3(N)COC3)cc1OCC2 | < 1 µM
CC(C)n1ncnc1-c1cn2c(n1)-c1ccc(C3CCN(CCS(=O)(=O)N(C)C)CC3)cc1OCC2 | < 1 µM
Cc1nc(-c2cn3c(n2)-c2ccc(CN)cc2OCC3)n(-c2ccc(F)cc2F)n1 | < 1 µM
Nc1nc(-c2cn3c(n2)-c2cc(C(F)(F)F)ccc2OCC3)n(CC(F)(F)F)n1 | < 1 µM
COC(=O)c1ccc2c(c1)OCCn1cc(-c3cccc(C(C)C)c3)nc1-2 | < 1 µM
CC(C)n1ncnc1-c1cn2c(n1)-c1ccc(C3CCN(CC(=O)NC(C)(C)C)CC3)cc1OCC2 | < 1 µM

SMILES | IC50
Cc1nc(-c2cn3c(n2)-c2cnc(N4C[C@H](F)C[C@H]4C(N)=O)cc2OCC3)n(C(C)C)n1 | < 1 µM
Cc1nc(-c2cn3c(n2)-c2ccc(C4CC4)cc2OCC3)n(C(C)CO)n1 (centres undefined) | < 1 µM
N#Cc1ccc2c(c1)-c1nc(-c3nc(N)nn3CC(F)(F)F)cn1CCO2 | < 1 µM
CC(C)n1ncnc1-c1cn2c(n1)-c1ccc(-c3ccc(Cl)cc3)cc1OCC2 | < 1 µM
CC(C)n1ncnc1-c1cn2c(n1)-c1ccc(O[C@@H](CCO)C(N)=O)cc1OCC2 | < 1 µM
CC[C@H](Oc1ccc2c(c1)OCCn1cc(-c3ncnn3CC(F)(F)F)nc1-2)C(N)=O | < 1 µM
CC(C)n1ncnc1-c1cn2c(n1)-c1ccc(-c3cnn(C(C)(C)C(=O)O)c3)cc1OCC2 | < 1 µM
CC(C)n1ncnc1-c1cn2c(n1)-c1ccc(N3CCC[C@H]3C(N)=O)cc1OCC2 | < 1 µM
Cc1nc(-c2cn3c(n2)-c2ccc(CNC(N)=O)cc2OCC3)n(-c2ccc(F)cc2F)n1 | < 1 µM
CC(C)N1CC(NC(=O)c2ccc3c(c2)-n2nc(-c4ncnn4C(C)C)cc2CCO3)C1 | < 1 µM
COC(=O)c1ccc2c(c1)OCCn1cc(-c3ncnn3CC(F)(F)F)nc1-2 | < 1 µM
CC(C)n1ncnc1-c1cn2c(n1)-c1cnc(N3C[C@H](C#N)C[C@H]3C(N)=O)cc1OCC2 | < 1 µM
FC(F)(F)Cn1ncnc1-c1cc2n(n1)-c1cc(C3CCNCC3)ccc1OCC2 | < 1 µM
CC(C)N1CCC(c2ccc3c(c2)OCCn2cc(-c4ncnn4C(C)C)nc2-3)CC1 | < 1 µM
CC(C)C(Oc1cc2c(cn1)-c1nc(-c3ncnn3C(C)C)cn1CCO2)C(N)=O (centres undefined) | < 1 µM
NC(=O)C1CC1c1ccc2c(c1)OCCn1cc(-c3ncnn3CC(F)(F)F)nc1-2 (centres undefined) | < 1 µM
CC(C)n1ncnc1-c1cn2c(n1)-c1ccc(COC(N)=O)cc1OCC2 | < 1 µM
